Assay results as given in patent publication US10195204B2, “Methods of treating hemoglobinopathies” (DUKE UNIVERSITY, priority 2011, dated 2019).
“Also recorded” adds a separate entry of the source.

Assays:
[1] = system: ERK1/2 phosphorylation in SS RBCs; assay: ERK1/2 phosphorylation in SS RBCs, Western blot (phosphoERK normalized to total ERK); type: cell-based, human
Protocol: Aliquots of packed RBCs were treated with various reagents to affect cAMP signaling or protein phosphorylation. […] Treated RBCs were then washed 5 times with 4 ml PBS with Ca^2+ and Mg^2+. Normal RBCs were used as controls. Prior to adhesion assays, treated RBCs were labeled with PKH 26 red fluorescent cell linker kit (Sigma), following the manufacturer's instructions.
Treated packed RBCs were lysed with hypotonic buffer (5 mM Na2HPO4+1 mM EDTA+0.1% NaN3, pH 8) containing 2 mM phenylmethylsulphonylfluoride (PMSF, Sigma), phosphatase inhibitor cocktail (Sigma) and protease inhibitor cocktail (Sigma). Protein separation by polyacrylamide gel electrophoresis using equal amounts of total RBC membrane ghost proteins per lane, after correcting total protein measurements for residual hemoglobin content, and Western blot^19 using the appropriate Ab were then performed. Mouse 3T3/A31 fibroblast lysate was used as a ERK1/2 positive control for immunoblots. For total ERK1/2, membranes blotted with anti-phosphoERK Ab were stripped and reexposed to Western blotting using anti-ERK1/2 Ab. Bands were analyzed densitometrically using ImageJ software downloaded from the NIH website. PhosphoERK1/2 data were normalized according to total ERK1/2 and are presented as fold change in ERK phosphorylation.

[2] = system: SS RBC adhesion to TNF-α-activated HUVECs; assay: Flow chamber adhesion of SS RBCs to TNF-α-activated HUVECs; type: cell-based, human
Protocol: Cells were then washed three times with 5 ml PBS with Ca^2+ and Mg^2+. Prior to adhesion assays, washed treated SS RBCs were labeled with PKH 26 red fluorescent cell linker kit (Sigma-Aldrich, St. Louis, Mo.), following the manufacturer's instructions.
Graduated height flow chambers were used to quantify adhesion of RBCs to HUVECs substantially as previously described in detail.^4, 20 In some adhesion studies, slides coated with HUVECs were treated with human recombinant TNF-α at 10 ng/ml for 4 hours. Slides coated with HUVECs treated or not with TNF-α were then washed three times with 20 ml HBSS with 1.26 mM Ca^2+, 0.9 mM Mg^2+ (Gibco, Grand Island, N.Y.) warmed previously to 37° C. and then fit into a variable height flow chamber. The flow chamber was mounted on the stage of an inverted phase contrast microscope (Diaphot, Nikon Inc., Melville, N.Y.) connected to a thermoplate (Tokai Hit Co., Ltd., Japan) set at 37° C. Cells were observed using a video camera (RS photometrics,) attached to the microscope and connected to a Macintosh G4 computer. RBC (3 ml) suspended at 0.2% (vol/vol) in HBSS with Ca^2+, Mg^2+ were infused into the flow chamber and allowed to adhere to the slide for 10 min without flow. Before exposure to flow, a minimum of three fields at each of seven different locations along a line oriented normal to future flow were examined for the total number of fluorescent cells. Fluid flow (HBSS with Ca^2+, Mg^2+) was then started using a calibrated syringe pump. After exposure to flow, the fields were again examined and the number of adherent cells counted. The fraction of adherent cells was presented as (number of cells attached after exposure to flow)/(cells present per field before flow). The wall shear stress was calculated as:
[formula] τw=wall shear stress (dyne/cm^2); Q=volumetric flow rate (cm^3/s); μ is media viscosity, w is the width of the flow channel, and H(x) is the height of the flow chamber as a function of position along the microscope slide. Several investigators have shown that blood flow in small vessels may be continuous, with shear stresses of 1-2 dynes/cm^2, or flow may be intermittent. Our data were obtained using both intermittent and continuous flow conditions.

[3] = system: ERK1/2; settings: ERK1/2 from epinephrine-treated SS RBCs, n=4
Protocol: Treated packed SS RBCs were lysed for 20 min at 4° C. with lysis buffer (10 mM EDTA, 20 mM Tris, 110 mM NaCl, pH 7.5) containing 2 mM PMSF, 1% Triton X-100, phosphatase inhibitor cocktail (Sigma) and protease inhibitor cocktail (Sigma). ERK1/2 was immunoprecipitated with anti-ERK1/2 antibody at 4° C., and immune complexes were obtained using protein A-agarose (Amersham Biosciences Corp., Piscataway, N.J.). ERK1/2 immunocomplex was examined for ERK1/2 activity using myelin basic protein (MBP) at 2 mg/ml (Millipore) as a substrate and ATP as a phosphate donor with equal protein amounts per assay condition. For the negative control, an equal volume of water was substituted for ERK1/2 substrate. […] The reaction mixture was incubated for 20 min at 30° C., followed by protein separation and immunoblotting using anti-phosphoMBP mAb (Millipore).

[4] = system: cAMP production in SS RBCs
Protocol: Whole cell cAMP accumulation was assayed to assess the functional capacity of the RBC β2-ARs to stimulate the production of cAMP. Washed packed RBCs were pre-treated with IBMX to define basal cAMP accumulation, followed by treatment with epinephrine for 1 min or 30 min, or forskolin. Samples were placed on ice, stimulation was halted, and cells fixed by the addition of 12.5 mM EDTA. Cell samples were boiled, clarified by centrifugation and assayed for cAMP content by radioimmunoassay as described previously.^22 Basal cAMP production was subtracted from the total cAMP produced by the cells. The amounts of cAMP were then normalized as fmol cAMP/10^8 RBCs.

| SMILES | effect on forskolin-induced ERK1/2 phosphorylation ([1]; SS RBCs) | effect on epinephrine-induced ERK1/2 phosphorylation ([1]; SS RBCs pre-incubated with inhibitor, then 20 nM epinephrine 1 min) | effect on PTx-induced ERK phosphorylation ([1]; SS RBCs, 2 μg/ml PTx) | SS RBCs adherent to TNF-α-activated HUVECs ([2]; SS RBCs pre-treated with 10 μM U0126) [%] | effect on SS RBC adhesion to TNF-α-activated HUVECs ([2]; SS RBCs treated with MEK inhibitor (10 μM; RDEA119 1 and 10 μM)) | ERK phosphorylation vs 1 min exposure [1] | ERK phosphorylation vs sham-treated [1] | fold increase in ERK phosphorylation [1] [fold] | increase in ERK phosphorylation above basal levels [1] [fold] | patients whose SS RBCs exhibited more than 1.5-fold elevation in ERK phosphorylation (responders) [1] [%] | MBP phosphorylation by immunoprecipitated ERK1/2, increase vs sham-treated cells [3] [fold] | intracellular cAMP ([4]; epinephrine 1 min, about 50% of samples (n=19)) | cAMP levels ([4]; epinephrine 30 min) |
| --- | --- | --- | --- | --- | --- | --- | --- | --- | --- | --- | --- | --- | --- |
| N#CC(=C(/N)Sc1ccccc1N)/C(C#N)=C(\N)Sc1ccccc1N [U0126] | prevented | significantly inhibited | blocked | 18±5 | significantly reduced; also recorded: significantly inhibited | – | – | – | – | – | – | – | – |
| CNC[C@H](O)c1ccc(O)c(O)c1 [epinephrine] | – | – | – | – | – | decreased | markedly increased | 2.1±0.1 | 2±0.17 | 40 | 2.1±0.3 | accumulation of high levels of intracellular cAMP | uniformly declined |
